Assay results taken from patent publication US10662193B2, “Carbazole and carboline compounds for use in the diagnosis, treatment, alleviation or prevention of disorders associated with amyloid or amyloid-like proteins” (AC IMMUNE SA, priority 2014, dated 2020).

Experiments:
[1] = system: Aβ plaques on AD brain section; assay: Assay 1: displacement of Compound B on human AD brain sections (fluorescence); format: binding
Procedure: Direct Binding of Compounds of this Invention to Human Alzheimer's Disease Brain Sections and/or Displacement of RefA and Compound B Frozen sections with a thickness of […] from the amygdala of donors diagnosed with Braak stage V-VI Alzheimer's Disease (Braak, H.; Braak, E. Acta Neuropathol., 1991, 82, 239-259), were purchased from a commercial provider (Tissue Solutions) and kept at -80° C. until use. Displacement of RefA and Compound B Brain sections were mainly treated as described above. Test compounds were, however, incubated on the section at 250 μM in 50% ethanol for 20 min at room temperature, and then directly incubated with the fluorescent reference compounds RefA and Compound B, each at 1 μM in 50% ethanol for 20 min at room temperature. RefA and Compound B stainings were visualized using the 470 nm and 365 nm excitation filters, respectively. Images were acquired, and tangles and plaques quantified using the NIS-Element software. Only those compounds not directly staining tangles or plaques at the same wavelengths as RefA and Compound B were tested in the displacement assay. Structure of Compound B (prepared by a similar procedure described for […] in WO2010/011964): […]

[2] = system: tau tangles/Aβ plaques on AD brain sections; assay: Assay 1: direct staining of human Alzheimer's disease brain sections (fluorescence); format: binding; set-up: key to Direct staining of tau tangles/Aβ plaques on AD brain sections at 100 μM / Direct staining of tau tangles on AD brain sections at 100 μM / Direct staining of Aβ plaques on AD brain sections at 100 μM / Direct staining of tau tangles on AD brain sections (footnote a: at 250 μM): − (No); +++ (strong); ++ (good); + (weak); conditions: for Direct staining of tau tangles/Aβ plaques on AD brain sections at 100 μM: human AD brain sections, fluorescence, cell does not say tangles or plaques
Procedure, shortened: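 Frozen […] amygdala sections from Braak V-VI AD donors, PFA-fixed, incubated with compound at 100 μM in 50% ethanol for 20 min at room temperature in the dark. Sudan Black quenched autofluorescence, then staining detected by fluorescence microscopy.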

[3] = system: tau tangles on AD brain section; assay: Assay 1: displacement of RefA on human AD brain sections (fluorescence); format: binding; conditions: for Selectivity (tau/Abeta): ratio of competition on tau tangles to competition on Aβ plaques
Procedure: Direct Binding of Compounds of this Invention to Human Alzheimer's Disease Brain Sections and/or Displacement of RefA and Compound B
Frozen sections with a thickness of […] from the amygdala of donors diagnosed with Braak stage V-VI Alzheimer's Disease (Braak, H.; Braak, E. Acta Neuropathol., 1991, 82, 239-259), were purchased from a commercial provider (Tissue Solutions) and kept at −80° C. until use.
Displacement of RefA and Compound B
Brain sections were mainly treated as described above. Test compounds were, however, incubated on the section at 250 μM in 50% ethanol for 20 min at room temperature, and then directly incubated with the fluorescent reference compounds RefA and Compound B, each at 1 μM in 50% ethanol for 20 min at room temperature. RefA and Compound B stainings were visualized using the 470 nm and 365 nm excitation filters, respectively. Images were acquired, and tangles and plaques quantified using the NIS-Element software. Only those compounds not directly staining tangles or plaques at the same wavelengths as RefA and Compound B were tested in the displacement assay.
Structure of RefA (Tago et al., J. Label. Compd. Radiopharm. 2013, DOI: 10.1002/jlcr.3133)

AD brain-enriched PHF = AD brain-enriched PHF (Homo sapiens, UniProt P10636); assay: Assay 2 (filter trap): [3H]RefA radio-binding competition assay and Ki on PHF; conditions: [^3H]RefA 10 nM; for Ki: PHF diluted 1/80, compound 0.12 nM to 50 μM
Procedure: Displacement of [^3H]RefA by Compounds of this Invention
50 g of frontal lobe tissue from post-mortem brain of an Alzheimer's disease (AD) patient were obtained from the London Tissue Bank. The patient was a […] and died […]. The brain sample was collected 5 hours post-mortem and characterized for Braak disease stage (Braak, H.; Braak, E. Acta Neuropathol., 1991, 82, 239-259) as stage VI. For the enrichment of PHF's, around 15 g of the AD human brain was thawed on ice and homogenized with 50 ml of homogenization buffer [0.75 M NaCl in RAB buffer (100 mM 2-(N-morpholino) ethanesulfonic acid (MES), 1 mM EGTA, 0.5 mM MgSO4, 2 mM DTT, pH 6.8) supplemented with protease inhibitors (Complete; Roche 11697498001) in a glass Dounce homogenizer. The homogenate was then incubated at 4° C. for 20 min to let any residual microtubules depolymerize, before the homogenate was transferred into polycarbonate centrifuge bottles (16×76 mm; Beckman 355603) and centrifuged at 11,000 g (12,700 RPM) in an ultracentrifuge (Beckman, XL100K) for 20 min at 4° C. using the pre-cooled 70.1 rotor (Beckman, 342184). Pellets were kept on ice. Supernatants were pooled into polycarbonate bottles and centrifuged again at 100,000 g (38,000 RPM) for 1 h at 4° C. in the 70.1 Ti rotor to isolate PHF-rich pellets, whereas soluble tau remained in the supernatants. The pellets from the first and second centrifugations were re-suspended in 120 mL of extraction buffer [10 mM Tris-HCl pH 7.4, 10% sucrose, 0.85 M NaCl, 1% protease inhibitor (Calbiochem 539131), 1 mM EGTA, 1% phosphatase inhibitor (Sigma P5726 and P0044)]. The solution was then transferred into polycarbonate centrifuge bottles (16×76 mm; Beckman 355603) and centrifuged at 15,000 g (14,800 RPM) in an ultracentrifuge (Beckman, XL100K) for 20 min at 4° C. using the 70.1 Ti rotor. In the presence of 10% sucrose and at low speed centrifugation, most PHF remained in the supernatant whereas intact or fragmented NFTs and larger PHF aggregates were pelleted. The pellets were discarded. 20% Sarkosyl (Sigma L7414-10ML) was added to the supernatants to a final concentration of 1% and stirred at room temperature for 1 h. This solution was then centrifuged into polycarbonate bottles at 100,000 g (38,000 RPM) for 1 h at 4° C. in the 70.1 Ti rotor, and the pellets containing PHF-rich material were re-suspended in a total final volume of 1.5 mL of PBS, aliquoted and stored at −80° C.
[^3H]RefA Radio-Binding Competition Assay
AD brain-enriched PHF diluted 1/80 were incubated in the presence of [^3H]RefA at 10 nM and the example compounds of this invention at 2.5 μM (250× excess), for 45 minutes at 37° C. Samples were then analyzed by on GF/B filter plates as described above (in the section “[^3H]RefA radio-binding assay and determination of the dissociation constant (Kd)). Non-specific signal was determined again with an excess of un-labeled RefA and specific binding calculated by subtracting the non-specific signal from the total signal. Competition was calculated as percent, where 0% was defined as the specific binding in the presence of vehicle (2.8% DMSO in PBS) and 100% as the values obtained in the presence of excess cold RefA. Similar assays were performed to determine the competition of the cold compounds on [^3H]RefA on in vitro aggregated recombinant human tau or Abeta1-42 For both recombinant proteins, 20 μg/mL of aggregates were incubated with 10 nM of [^3H]RefA for recombinant human tau or 80 nM of [^3H]RefA for recombinant human Abeta1-42.
Determination of the Binding Affinity (Ki)
Samples were then analyzed on GF/B filter plates as described above and Ki values calculated using Prism V5 (GraphPad).

Chain of AD brain-enriched PHF (P10636 623-708 limits assumed): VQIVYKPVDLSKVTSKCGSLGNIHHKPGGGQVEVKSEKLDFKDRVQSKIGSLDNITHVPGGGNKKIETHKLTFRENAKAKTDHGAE

Row | Structure (SMILES) | Competition on AD brain section Aβ plaques (1 μM Compound B vs 250 μM compound) [1] [%] | Direct staining of tau tangles/Aβ plaques on AD brain sections at 100 μM ([2]; 100 μM compound) | Competition on AD brain section tau tangles (1 μM RefA vs. 250 μM compound) [3] [%] | Selectivity (tau/Abeta) [3] | Ki (AD brain-enriched PHF) [µM] | Direct staining of tau tangles on AD brain sections (footnote a: at 250 μM) ([2]; 250 μM compound, tangles) | Direct staining of tau tangles on AD brain sections at 100 μM ([2]; 100 μM compound, tangles) | Direct staining of Aβ plaques on AD brain sections at 100 μM ([2]; 100 μM compound, plaques) | inhibition at 2.5 µM (AD brain-enriched PHF; compound 2.5 μM, no Ki determined) [%]
1 | Cn1c2ccncc2c2ccc(Nc3cccc(N4CCOCC4)c3)nc21 [Example 1] | 32 | − | 84 | ~2.6 fold | 0.078 |  |  |  | 
2 | Cn1c2ccncc2c2ccc(Nc3ccc(F)c(N4CCOCC4)c3)nc21 [Example 3] | 8 | − | 78 | ~9.8 fold | 0.233 |  |  |  | 
3 | Cn1c2ccncc2c2ccc(Nc3cccc(OC(F)F)c3)nc21 [Example 4] | 17 |  | 91 | ~5.4 fold | 0.0033 | + (tangles)^a |  |  | 
4 | Cn1c2ccncc2c2ccc(Nc3ccc(F)cc3N3CCOCC3)nc21 [Example 5] | 12 | − | 0 |  | 0.305 |  |  |  | 
5 | Cn1c2ccncc2c2ccc(Nc3cc(F)cc(N4CCOCC4)c3)nc21 [Example 7] | 0 |  | 84 | >84 fold | 0.326 |  | ++ (tangles) |  | 
6 | Cn1c2ccncc2c2ccc(Nc3cccc(N4CCOCC4)c3F)nc21 [Example 12] | 0 | − | 98 | >98 fold | 0.165 |  |  |  | 
7 | Cn1c2ccncc2c2ccc(N3CCC(CCOCCF)CC3)nc21 [Example 155] | 15 |  | 90 | ~6-fold |  |  | + (tangles) + (plaques) | + (tangles) + (plaques) | 
8 | CN1CCc2c(c3ccc(Nc4ccc(F)cc4N4CCOCC4)nc3n2C)C1=O [Example 175] | 0 | − | 6 |  |  |  |  |  | < 50
